# Values quoted from earlier work in patent US6509447B1, “G protein chimeras and methods of screening compounds” (Glaxo Welcome Inc., priority 1997, dated 2003).
# Molecular target: T1, Ste2p (Saccharomyces cerevisiae, UniProt D6VTK4)
# T1 sequence (D6VTK4 1-431): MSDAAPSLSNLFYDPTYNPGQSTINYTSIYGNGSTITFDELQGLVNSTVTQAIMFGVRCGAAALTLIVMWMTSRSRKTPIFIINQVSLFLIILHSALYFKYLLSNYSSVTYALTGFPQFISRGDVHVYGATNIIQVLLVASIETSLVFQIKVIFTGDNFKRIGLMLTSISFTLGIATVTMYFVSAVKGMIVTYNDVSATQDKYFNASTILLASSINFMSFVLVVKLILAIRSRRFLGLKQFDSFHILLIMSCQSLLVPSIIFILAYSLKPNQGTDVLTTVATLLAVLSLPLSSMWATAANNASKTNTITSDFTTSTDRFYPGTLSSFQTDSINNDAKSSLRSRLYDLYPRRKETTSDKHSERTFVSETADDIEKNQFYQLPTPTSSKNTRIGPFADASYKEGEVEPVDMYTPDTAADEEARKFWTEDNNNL
# Settings: literature reference (3); read-out: reported affinity of Ste2p for α-factor peptide (Kd); cited from earlier work
substance,measurement,value
α-factor,Kd,17 nM
